Values of other authors as cited in article PMC10465233, “Lys-urea-Aad, Lys-urea-Cmc and Lys-urea-Cms as potential pharmacophores for the design of PSMA-targeted radioligands to reduce off-target uptake in kidneys and salivary glands” (Theranostics, 2023).
Like-named read-outs stand apart in the source and are kept apart here.

Design: method as in earlier work
Details: cited from earlier work

For `O=C([O-])CN1CCN(CC(=O)[O-])CCN(CC(=O)NCC2CCC(C(=O)NC(Cc3c4ccccc4cc4ccccc34)C(=O)NCCCCC(NC(=O)NC(CCCC(=O)O)C(=O)O)C(=O)O)CC2)CCN(CC(=O)[O-])CC1.[177Lu+3]` (centres unmarked) [[^177Lu]Lu-HTK03149], the Kinetics value (source organ Brain) is given as 2.23E-03 MBq-h/MBq, the Kinetics value (source organ Cortical bone) is given as 7.60E-02 MBq-h/MBq and the Kinetics value (source organ Heart) is given as 1.94E-02 MBq-h/MBq. The Kinetics value (source organ Kidneys) was 2.41E-01 MBq-h/MBq, the Kinetics value (source organ Large intestine contents) was 9.24E-02 MBq-h/MBq and the Kinetics value (source organ Liver) was 3.91E-01 MBq-h/MBq. The Kinetics value (source organ Lungs) was 1.72E-02 MBq-h/MBq, the Kinetics value (source organ Pancreas) was 1.79E-02 MBq-h/MBq and the Kinetics value (source organ Remainder of the body) was 5.31E-01 MBq-h/MBq. For the same compound, the Kinetics value (source organ Spleen) was 2.30E-02 MBq-h/MBq, the Kinetics value (source organ Stomach) was 8.07E-03 MBq-h/MBq and the Kinetics value (source organ Testes) was 1.29E-02 MBq-h/MBq. The Kinetics value (source organ Thyroid) was 2.03E-03 MBq-h/MBq and the Kinetics value (source organ Urinary bladder) was 8.14E-01 MBq-h/MBq.
